The source of these data is ChEMBL document CHEMBL1132023, “Synthesis and anticancer evaluation of certain alpha-methylene-gamma-(4-substituted phenyl)-gamma-butyrolactone bearing thymine, uracil, and 5-bromouracil” (1999).

One may read the GI50 as the concentration that inhibits growth by half.

Type in all cases: functional
Holding throughout (settings): Homo sapiens

In one test the test system is ACHN. Briefly: In vitro inhibition of Renal Cancer ACHN cell lines.
For another test, the system named is A549. Briefly: In vitro inhibition of Non-Small Cell Lung Cancer A549/ATCC cell lines.
Test [1] concerns COLO 205. Description: In vitro inhibition of Colon Cancer COLO 205 cell lines.
A further test concerns DU-145. Briefly: In vitro inhibition of Prostate Cancer DU-145 cell lines.
In test [2] the test system is HL-60. Briefly: In vitro inhibition of Leukemia HL-60(TB) cell lines( most sensitive cell).
Test [3] concerns Hs-578T. Briefly: In vitro inhibition of Breast Cancer Hs 578.T cell lines.
In another test the test system is IGROV-1. Description: In vitro inhibition of Ovarian Cancer IGROV1 cell lines.
A further test deals with LOX IMVI. Description: In vitro inhibition of Melanoma LOX IM VI cell lines.
The next test relates to MDA-MB-435. Briefly: In vitro inhibition of Breast Cancer MDA-MB-435 cell lines.
Another test relates to Malme-3M. Briefly: In vitro inhibition of Melanoma MALME-3M cell lines.
The subject of test [4] is NCI-H460. Briefly: In vitro inhibition of Non-Small Cell Lung Cancer NCI-H460 cell lines.
The next test relates to PC-3. Description: In vitro inhibition of Prostate Cancer PC-3 cell lines.
The test system of test [5] is RPMI-8226. Briefly: In vitro inhibition of Leukemia RPMI-8226 cell lines.
Test [6] deals with SNB-19. Description: In vitro inhibition of CNS Cancer SNB-19 cell lines( least sensitive cell).
Another test concerns SK-OV-3. Description: In vitro inhibition of Ovarian Cancer SK-OV-3 cell lines.
The test system of the next test is SW-620. Briefly: In vitro inhibition of Colon Cancer SW-620 cell lines.
The next test relates to TK-10. Description: In vitro inhibition of Renal Cancer TK-10 cell lines.
The next test concerns U-251. Description: In vitro inhibition of CNS Cancer U-251 cell lines.
Test [7] concerns COLO 205. Briefly: In vitro inhibition of Colon Cancer COLO 205 cell lines( most sensitive cell).
In test [8] the test system is HL-60. Briefly: In vitro inhibition of Leukemia HL-60(TB) cell lines.
The test system of test [9] is Hs-578T. Description: In vitro inhibition of Breast Cancer Hs 578.T cell lines(The least sensitive cell).
The subject of test [10] is NCI-H460. Description: In vitro inhibition of Non-Small Cell Lung Cancer NCI-H460 cell lines( least sensitive cell).
For test [11], the system named is SNB-19. Description: In vitro inhibition of CNS Cancer SNB-19 cell lines.
The test system of test [12] is Hs-578T. Briefly: In vitro inhibition of Breast Cancer Hs 578.T cell lines( least sensitive cell).
Test [13] relates to NCI-H460. Description: In vitro inhibition of Non-Small Cell Lung Cancer NCI-H460 cell lines(least sensitive cell).
For test [14], the system named is RPMI-8226. Description: In vitro inhibition of Leukemia RPMI-8226 cell lines( most sensitive cell).
Test [15] relates to HL-60. Briefly: In vitro inhibition of Leukemia HL-60(TB) cell lines(most sensitive cell).
Test [16] concerns SNB-19. Briefly: In vitro inhibition of CNS Cancer SNB-19 cell lines(least sensitive cell).
Test [17] concerns HL-60. Briefly: In vitro inhibition of Leukemia HL-60(TB) cell lines ( most sensitive cell).

Consider `C=C1CC(Cn2ccc(=O)[nH]c2=O)(c2ccc(-c3ccccc3)cc2)OC1=O` (configuration not stated), for which the GI50 in the test with ACHN was 2.29 µM; with A549 it was 10.7 µM; with COLO 205 [1], 0.174 µM; in the test with DU-145, 0.2 µM; in the test on HL-60 [2], 0.105 µM; in the test on Hs-578T [3] it was 7.41 µM. Besides, the GI50 was 0.708 µM in the test on IGROV-1; 0.209 µM in the test with LOX IMVI; 0.49 µM in the test on MDA-MB-435; 1.58 µM in the test with Malme-3M; 10.2 µM in the test with NCI-H460 [4]; 1.32 µM in the test on PC-3. Further, the GI50 in the test with RPMI-8226 [5] is 0.214 µM; in the test on SNB-19 [6], 17.4 µM; in the test on SK-OV-3 it was 10.5 µM; in the test with SW-620 it was 0.17 µM; in the test with TK-10, 0.955 µM; with U-251 it was 10 µM.
Take `C=C1CC(Cn2cc(C)c(=O)[nH]c2=O)(c2ccc(F)cc2)OC1=O` (configuration not stated): the GI50 in the test on ACHN is 3.55 µM; in the test on A549 it was 17.8 µM; in the test on COLO 205 [7], 1.58 µM; with DU-145 it was 7.59 µM; with HL-60 [8], 2.57 µM; with Hs-578T [9], 19.1 µM. Also, the GI50 in the test on IGROV-1 is 5.5 µM; in the test on LOX IMVI, 4.27 µM; in the test on MDA-MB-435, 5.62 µM; with Malme-3M it was 3.55 µM; with NCI-H460 [10] it was 19.1 µM; with PC-3, 9.12 µM. Further, the GI50 in the test with RPMI-8226 [5] was 3.55 µM; in the test with SNB-19 [11], 14.8 µM; with SK-OV-3, 16.2 µM; in the test with SW-620 it was 3.63 µM; with TK-10, 4.57 µM; in the test on U-251, 11.5 µM.
Take `C=C1CC(Cn2ccc(=O)[nH]c2=O)(c2ccc(F)cc2)OC1=O` (configuration not stated): the GI50 in the test on ACHN was 13.2 µM; in the test with A549, 17 µM; with COLO 205 [7] it was 3.02 µM; with DU-145, 15.1 µM; in the test on HL-60 [8], 3.72 µM; in the test on IGROV-1 it was 13.2 µM. The GI50 in the test with LOX IMVI was 6.03 µM; in the test with MDA-MB-435, 10.7 µM; in the test on Malme-3M, 7.59 µM; in the test on NCI-H460 [4] it was 13.8 µM; in the test on PC-3, 16.2 µM; in the test on RPMI-8226 [5], 5.37 µM. Also, the GI50 in the test on SNB-19 [11] was 14.8 µM; in the test on SK-OV-3, 15.1 µM; in the test with SW-620, 4.9 µM; with TK-10 it was 14.5 µM; in the test on U-251, 15.5 µM; in the test with Hs-578T [12], 20.4 µM.
`C=C1CC(Cn2cc(Br)c(=O)[nH]c2=O)(c2ccc(F)cc2)OC1=O` (configuration not stated): the GI50 in the test on ACHN was 4.47 µM; with COLO 205 [1], 2.24 µM; with DU-145 it was 16.2 µM; in the test on HL-60 [8], 1.74 µM; with Hs-578T [3], 14.5 µM; in the test on IGROV-1, 12.9 µM. Moreover, the 50% growth inhibitory concentration (GI50) in the test with LOX IMVI is 3.39 µM; with MDA-MB-435, 4.07 µM; in the test with Malme-3M, 4.57 µM; in the test with NCI-H460 [13] it was 20.9 µM; with PC-3, 11.7 µM; in the test with RPMI-8226 [14], 0.468 µM. Besides, the GI50 is 19.5 µM with SNB-19 [11]; 16.6 µM with SK-OV-3; 2.75 µM in the test with SW-620; 17 µM with TK-10; 8.51 µM in the test with U-251.
As to `C=C1CC(Cn2cc(Br)c(=O)[nH]c2=O)(c2ccc(-c3ccccc3)cc2)OC1=O` (configuration not stated), the GI50 in the test on ACHN is 2.51 µM; in the test with A549 it was 6.17 µM; in the test on COLO 205 [1], 0.355 µM; in the test on DU-145, 1.07 µM; in the test on HL-60 [15], 0.0457 µM; in the test with Hs-578T [3], 4.79 µM. The GI50 in the test on IGROV-1 is 1.2 µM; in the test on LOX IMVI it was 0.851 µM; in the test on MDA-MB-435, 1 µM; with Malme-3M it was 1.55 µM; in the test on NCI-H460 [4] it was 10.5 µM; in the test with PC-3, 1.26 µM. The GI50 was 0.129 µM in the test with RPMI-8226 [5]; 14.5 µM with SNB-19 [16]; 6.03 µM in the test on SK-OV-3; 0.282 µM in the test with SW-620; 0.126 µM in the test with TK-10; 5.75 µM in the test with U-251.
Consider `C=C1CC(Cn2cc(C)c(=O)[nH]c2=O)(c2ccc(-c3ccccc3)cc2)OC1=O` (configuration not stated), for which the GI50 in the test with ACHN is 7.59 µM; in the test on A549, 12.3 µM; in the test on COLO 205 [1], 1.41 µM; in the test with DU-145 it was 1.66 µM; in the test on HL-60 [17], 0.234 µM; in the test on IGROV-1, 1.91 µM. Besides, the GI50 in the test with LOX IMVI is 1.74 µM; in the test with MDA-MB-435, 2 µM; with Malme-3M, 3.72 µM; in the test on NCI-H460 [4], 13.8 µM; with PC-3, 2.51 µM; in the test on RPMI-8226 [5], 0.646 µM. Besides, the GI50 was 16.6 µM with SNB-19 [11]; 13.5 µM with SK-OV-3; 1.02 µM in the test with SW-620; 1.58 µM with TK-10; 13.2 µM with U-251; 25.7 µM in the test with Hs-578T [12].
